Measured values from ChEMBL document CHEMBL6109053, “Aspirin-based PROTACs as COX-2 degraders for anti-inflammation” (Bioorg Med Chem, 2025).
The source made the active and inactive calls. No cut-off for these calls is given here.

How the values were obtained:
[1] = tested on: RAW264.7; assay: Cytotoxicity against mouse RAW264.7 cells at 20 uM incubated for 24 hrs by CCK-8 assay; format: toxicity, cell-based; details: raw264.7, 24 h
[2] = tested on: RAW264.7; assay: PROTAC activity at COX-2/VHL in mouse RAW264.7 cells assessed as downregulation of COX2 expression measured after 24 hrs by Western blot analysis; format: cell-based; details: dose 5-20 µM
[3] = target: T1, Prostaglandin G/H synthase 2 (Homo sapiens, UniProt P35354); assay: Inhibition of human recombinant COX-2 using S0168-2 as substrate preincubated for 10 mins followed by substrate addition and measured after 10 mins by microplate reader analysis
T1 sequence (P35354 whole entry): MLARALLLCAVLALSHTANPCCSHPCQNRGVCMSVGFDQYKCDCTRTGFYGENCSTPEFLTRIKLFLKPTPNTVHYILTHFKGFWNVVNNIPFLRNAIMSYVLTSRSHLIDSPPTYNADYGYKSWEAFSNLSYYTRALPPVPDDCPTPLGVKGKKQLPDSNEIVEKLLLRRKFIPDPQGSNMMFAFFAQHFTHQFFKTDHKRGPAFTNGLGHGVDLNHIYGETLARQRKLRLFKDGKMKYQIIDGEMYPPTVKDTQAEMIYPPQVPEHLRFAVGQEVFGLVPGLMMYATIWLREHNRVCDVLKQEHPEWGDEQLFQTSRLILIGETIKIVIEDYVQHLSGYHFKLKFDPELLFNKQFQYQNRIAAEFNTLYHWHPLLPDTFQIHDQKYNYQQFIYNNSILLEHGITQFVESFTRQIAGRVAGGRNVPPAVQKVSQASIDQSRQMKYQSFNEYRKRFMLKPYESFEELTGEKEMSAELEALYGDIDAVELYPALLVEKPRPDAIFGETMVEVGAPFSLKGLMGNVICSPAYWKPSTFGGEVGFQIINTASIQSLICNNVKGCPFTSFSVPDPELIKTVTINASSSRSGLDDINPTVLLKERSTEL

[4] = tested on: RAW264.7; assay: Anti-inflammatory activity in LPS-induced mouse RAW264.7 cells; format: functional, cell-based
[5] = target: Protein cereblon/Prostaglandin G/H synthase 2 (Mus musculus) (UniProt Q05769+Q8C7D2); assay: PROTAC activity at COX-2/CRBN in mouse RAW264.7 cells assessed as downregulation of COX2 expression measured after 24 hrs by Western blot analysis; format: cell-based; details: dose 5-20 µM
Sequence of Protein cereblon/Prostaglandin G/H synthase 2 (Mus musculus) (Q05769 whole entry, looked up): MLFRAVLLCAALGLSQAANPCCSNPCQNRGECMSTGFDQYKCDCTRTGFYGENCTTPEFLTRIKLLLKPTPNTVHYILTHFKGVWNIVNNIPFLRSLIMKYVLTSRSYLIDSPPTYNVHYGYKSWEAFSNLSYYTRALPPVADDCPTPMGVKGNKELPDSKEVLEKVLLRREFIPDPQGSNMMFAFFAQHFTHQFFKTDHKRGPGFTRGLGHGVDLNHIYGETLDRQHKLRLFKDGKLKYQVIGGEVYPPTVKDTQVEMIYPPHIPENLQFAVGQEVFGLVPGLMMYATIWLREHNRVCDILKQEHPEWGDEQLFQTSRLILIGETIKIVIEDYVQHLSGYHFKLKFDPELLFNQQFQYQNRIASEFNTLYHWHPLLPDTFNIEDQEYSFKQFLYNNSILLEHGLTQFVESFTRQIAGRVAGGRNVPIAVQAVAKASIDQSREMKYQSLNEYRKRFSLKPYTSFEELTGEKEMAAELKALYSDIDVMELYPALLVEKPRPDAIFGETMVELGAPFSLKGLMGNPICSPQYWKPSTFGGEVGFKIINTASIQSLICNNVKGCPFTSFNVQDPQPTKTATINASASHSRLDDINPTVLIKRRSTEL
Sequence of Protein cereblon/Prostaglandin G/H synthase 2 (Mus musculus) (Q8C7D2 whole entry, looked up): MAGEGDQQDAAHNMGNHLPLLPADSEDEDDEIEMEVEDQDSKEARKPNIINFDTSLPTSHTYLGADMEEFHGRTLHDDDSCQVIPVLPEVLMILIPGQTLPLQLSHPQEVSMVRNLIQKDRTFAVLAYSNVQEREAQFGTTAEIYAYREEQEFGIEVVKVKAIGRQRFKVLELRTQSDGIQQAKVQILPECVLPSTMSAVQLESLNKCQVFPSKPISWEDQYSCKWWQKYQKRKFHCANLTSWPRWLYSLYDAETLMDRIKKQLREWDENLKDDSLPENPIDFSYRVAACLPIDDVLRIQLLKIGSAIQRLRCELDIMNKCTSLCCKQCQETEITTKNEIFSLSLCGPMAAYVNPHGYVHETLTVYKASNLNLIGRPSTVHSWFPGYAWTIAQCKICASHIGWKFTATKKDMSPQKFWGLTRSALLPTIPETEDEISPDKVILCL

| Compound | Activity [1] | Activity [2] | IC50 [3] [µM] | Activity [4] | Activity [5] |
| --- | --- | --- | --- | --- | --- |
| Cc1ncsc1-c1ccc([C@@H](C)NC(=O)[C@@H]2C[C@@H](O)CN2C(=O)[C@@H](NC(=O)CCCCn2cc(CCC(=O)Oc3ccccc3C(=O)O)nn2)C(C)(C)C)cc1 | Non-toxic | Dose-dependent-effect | 323 | Active |  |
| O=C1CCC(N2C(=O)c3cccc(NC4CCC(NC(=O)CCCCn5cc(CCC(=O)Oc6ccccc6C(=O)O)nn5)CC4)c3C2=O)C(=O)N1 (configuration not stated) | Non-toxic |  |  | Active | Dose-dependent-effect |
